Experiment: Stability of non-aqueous mixtures of 1-(nitrosooxy)-propan-2-ol and 2-(nitrosooxy)-propan-1-ol in 1,2-propanediol, GC analysis
Format: physicochemical
Procedure: Three different concentrations of 1-(nitrosooxy)-propan-2-ol and 2-(nitrosooxy)-propan-1-ol in 1,2-propanediol were prepared and stored in both a refrigerator (5° C.) and freezer (−20° C.). Aliquots of each solution were taken periodically and analysed by GC to determine the concentration of 1-(nitrosooxy)-propan-2-ol and 2-(nitrosooxy)-propan-1-ol.
The results of the GC analysis are shown in the table below (column: Rxi-5Sil MS, 20 m×0.18 mm, […]; carrier: He; Inlet: 250° C., split ratio 100:1; constant flow: 1.0 mL/min; oven temperature profile: 40° C. (3 min), 10° C./min, 80° C. (0 min), 30° C./min, 250° C. (3 min); FID: 300° C., H2 flow 30 mL/min, air flow 400 mL/min, make-up flow (N2) 25 mL/min; internal standard: 1,1,1,3,5,5,5-heptamethyl trisiloxane): […]

[1] = Freezer (−20° C.), 10 days, Low conc. sample in 1,2-propanediol
[2] = Freezer (−20° C.), 10 days, Medium conc. sample in 1,2-propanediol
[3] = Freezer (−20° C.), 14 days, High conc. sample in 1,2-propanediol
[4] = Freezer (−20° C.), 27 days, Low conc. sample in 1,2-propanediol
[5] = Freezer (−20° C.), 27 days, Medium conc. sample in 1,2-propanediol
[6] = Freezer (−20° C.), 28 days, High conc. sample in 1,2-propanediol
[7] = Freezer (−20° C.), 56 days, High conc. sample in 1,2-propanediol
[8] = Freezer (−20° C.), 64 days, Low conc. sample in 1,2-propanediol
[9] = Freezer (−20° C.), 64 days, Medium conc. sample in 1,2-propanediol
[10] = Freezer (−20° C.), 84 days, High conc. sample in 1,2-propanediol
[11] = Freezer (−20° C.), 84 days, Low conc. sample in 1,2-propanediol
[12] = Freezer (−20° C.), 84 days, Medium conc. sample in 1,2-propanediol
[13] = Freezer (−20° C.), Start, High conc. sample in 1,2-propanediol
[14] = Freezer (−20° C.), Start, Low conc. sample in 1,2-propanediol
[15] = Freezer (−20° C.), Start, Medium conc. sample in 1,2-propanediol
[16] = Refrigerator (5° C.), 10 days, Low conc. sample in 1,2-propanediol
[17] = Refrigerator (5° C.), 10 days, Medium conc. sample in 1,2-propanediol
[18] = Refrigerator (5° C.), 14 days, High conc. sample in 1,2-propanediol
[19] = Refrigerator (5° C.), 27 days, Low conc. sample in 1,2-propanediol
[20] = Refrigerator (5° C.), 27 days, Medium conc. sample in 1,2-propanediol
[21] = Refrigerator (5° C.), 28 days, High conc. sample in 1,2-propanediol
[22] = Refrigerator (5° C.), 56 days, High conc. sample in 1,2-propanediol
[23] = Refrigerator (5° C.), 64 days, Low conc. sample in 1,2-propanediol
[24] = Refrigerator (5° C.), 64 days, Medium conc. sample in 1,2-propanediol
[25] = Refrigerator (5° C.), 84 days, High conc. sample in 1,2-propanediol
[26] = Refrigerator (5° C.), 84 days, Low conc. sample in 1,2-propanediol
[27] = Refrigerator (5° C.), 84 days, Medium conc. sample in 1,2-propanediol
[28] = Refrigerator (5° C.), Start, High conc. sample in 1,2-propanediol
[29] = Refrigerator (5° C.), Start, Low conc. sample in 1,2-propanediol
[30] = Refrigerator (5° C.), Start, Medium conc. sample in 1,2-propanediol

| SMILES | Concentration (% w/w) [1] [% w/w] | Concentration (% w/w) [2] [% w/w] | Concentration (% w/w) [3] [% w/w] | Concentration (% w/w) [4] [% w/w] | Concentration (% w/w) [5] [% w/w] | Concentration (% w/w) [6] [% w/w] | Concentration (% w/w) [7] [% w/w] | Concentration (% w/w) [8] [% w/w] | Concentration (% w/w) [9] [% w/w] | Concentration (% w/w) [10] [% w/w] | Concentration (% w/w) [11] [% w/w] | Concentration (% w/w) [12] [% w/w] | Concentration (% w/w) [13] [% w/w] | Concentration (% w/w) [14] [% w/w] | Concentration (% w/w) [15] [% w/w] | Concentration (% w/w) [16] [% w/w] | Concentration (% w/w) [17] [% w/w] | Concentration (% w/w) [18] [% w/w] | Concentration (% w/w) [19] [% w/w] | Concentration (% w/w) [20] [% w/w] | further results |
| --- | --- | --- | --- | --- | --- | --- | --- | --- | --- | --- | --- | --- | --- | --- | --- | --- | --- | --- | --- | --- | --- |
| CC(O)CON=O (stereo not drawn) [1-Nitrite, 1-(nitrosooxy)-propan-2-ol] | 0.08 | 0.81 | 3.76 | 0.07 | 0.74 | 3.72 | 3.55 | 0.07 | 0.74 | 3.50 | 0.08 | 0.78 | 3.75 | 0.08 | 0.81 | 0.08 | 0.86 | 3.72 | 0.09 | 0.81 | Concentration (% w/w) [21]: 3.67 % w/w; Concentration (% w/w) [22]: 3.47 % w/w; Concentration (% w/w) [23]: 0.07 % w/w; Concentration (% w/w) [24]: 0.73 % w/w; Concentration (% w/w) [25]: 3.33 % w/w; Concentration (% w/w) [26]: 0.07 % w/w; Concentration (% w/w) [27]: 0.77 % w/w; Concentration (% w/w) [28]: 3.75 % w/w; Concentration (% w/w) [29]: 0.08 % w/w; Concentration (% w/w) [30]: 0.81 % w/w |
| CC(CO)ON=O (stereo not drawn) [2-Nitrite, 2-(nitrosooxy)-propan-1-ol] | 0.06 | 0.63 | 2.89 | 0.06 | 0.57 | 2.93 | 2.74 | 0.06 | 0.58 | 2.71 | 0.06 | 0.62 | 2.94 | 0.06 | 0.61 | 0.06 | 0.67 | 2.91 | 0.07 | 0.63 | Concentration (% w/w) [21]: 2.90 % w/w; Concentration (% w/w) [22]: 2.69 % w/w; Concentration (% w/w) [23]: 0.06 % w/w; Concentration (% w/w) [24]: 0.57 % w/w; Concentration (% w/w) [25]: 2.59 % w/w; Concentration (% w/w) [26]: 0.06 % w/w; Concentration (% w/w) [27]: 0.60 % w/w; Concentration (% w/w) [28]: 2.94 % w/w; Concentration (% w/w) [29]: 0.06 % w/w; Concentration (% w/w) [30]: 0.61 % w/w |
